Patent US20060094695A1, “Hypoestoxides, derivatives and agonists thereof for use in the prophylaxis and treatment of obesity” (Paraquest, Inc., priority 2004, published 2006)

Tests used:
[1] = tested on: C57BL/6J-Lep^ob mice; test: Prevention of Obesity in Mice (Table 1); format: in vivo; conditions: 4-week-old female mice, in g
Description: The ability of hypoestoxides and hypoestes rosea dried leaf powder to prevent obesity was studied. Hypoestoxide and hypoestes rosea dried leaf powder was administered to C57BL/6J-Lep^ob mice. The mice are homozygous for the obese spontaneous mutation and are first recognizable as such at approximately 4 weeks of age. At 4 weeks, the mice weigh 20-25 grams, and may reach three to four times the weight of wild-type mice. Three 4-week-old female mice were placed in each of four treatment conditions, for a total of twelve mice in the study: (i) control; (ii) hypoestoxide was administered orally at a dose of 10 mg/kg; (iii) hypoestoxide was administered orally at a dose of 100 mg/kg; or (iv) hypoestes dried leaf powder was administered orally at a dose of 100 mg/kg. Treatments were administered once a day and the study continued for 21 days.

[2] = tested on: C57BL/6J-Lep^ob mice; test: Treatment of Obesity in Mice (Table 2); format: in vivo; conditions: 10 mg/kg orally once a day for 50 days, approx. 4 months old, one mouse
Description: Treatment of obesity with hypoestoxide and hypoestes rosea dried leaf powder was also studied. Hypoestoxide and hypoestes rosea dried leaf powder was administered to C57BL/6J-Lep^ob mice. The mice were treated at approximately 4 months of age at a weight of approximately 50 grams. One mouse was placed in each of three treatment conditions: (i) control; (ii) hypoestoxide was administered orally at a dose of 10 mg/kg; or (iii) hypoestes dried leaf powder was administered orally at a dose of 100 mg/kg. Treatments were administered once a day, with hypoestoxide treatment lasting 50 days and hypoestes dried leaf powder treatment lasting 21 days.

Structure (SMILES): C=C1C(=O)C[C@H]2C[C@@H]3O[C@@]3(C)CC[C@@H]3O[C@@]3(C)C[C@@H](OC(C)=O)[C@H]1C2(C)C [Hypoestoxide, hypoestoxide]
- weight of mice, Prevention of Obesity in Mice ([1]; 10 mg/kg orally once a day for 21 days): 41.6 ± 2.0
- weight of mice, Prevention of Obesity in Mice ([1]; 100 mg/kg orally once a day for 21 days): 40.0 ± 1.5
- weight of mice, Prevention of Obesity in Mice ([1]; day 7, 10 mg/kg orally once a day for 21 days): 19.6 ± 2.0
- weight of mice, Prevention of Obesity in Mice ([1]; day 7, 100 mg/kg orally once a day for 21 days): 20.9 ± 1.2
- weight of mice, Prevention of Obesity in Mice ([1]; day 14, 10 mg/kg orally once a day for 21 days): 25.4 ± 1.6
- weight of mice, Prevention of Obesity in Mice ([1]; day 14, 100 mg/kg orally once a day for 21 days): 23.8 ± 0.6
- weight of mice, Prevention of Obesity in Mice ([1]; day 21, 10 mg/kg orally once a day for 21 days): 27.5 ± 1.5
- weight of mice, Prevention of Obesity in Mice ([1]; day 21, 100 mg/kg orally once a day for 21 days): 27.0 ± 0.8
- weight of mice, Prevention of Obesity in Mice ([1]; day 28, 10 mg/kg orally once a day for 21 days): 28.8 ± 2.3
- weight of mice, Prevention of Obesity in Mice ([1]; day 28, 100 mg/kg orally once a day for 21 days): 26.4 ± 2.2
- weight of mice, Prevention of Obesity in Mice ([1]; day 35, 10 mg/kg orally once a day for 21 days): 30.3 ± 3.2
- weight of mice, Prevention of Obesity in Mice ([1]; day 35, 100 mg/kg orally once a day for 21 days): 29.0 ± 2.9
- weight of mice, Prevention of Obesity in Mice ([1]; day −1 (before treatment), group 10 mg/kg orally once a day for 21 days): 21.0 ± 1.4
- weight of mice, Prevention of Obesity in Mice ([1]; day −1 (before treatment), group 100 mg/kg orally once a day for 21 days): 24.3 ± 1.1
- weight of mouse, Treatment of Obesity in Mice ([2]; day 7): 53 g
- weight of mouse, Treatment of Obesity in Mice ([2]; day 14): 51.5 g
- weight of mouse, Treatment of Obesity in Mice ([2]; day 21): 51 g
- weight of mouse, Treatment of Obesity in Mice ([2]; day 28): 50.4 g
- weight of mouse, Treatment of Obesity in Mice ([2]; day 35): 50 g
- weight of mouse, Treatment of Obesity in Mice ([2]; day 160): 69.8 g
- weight of mouse, Treatment of Obesity in Mice ([2]; day −1 (before treatment)): 53 g
